From paper PMC12640959, “Elucidation of anti-SARS-CoV-2 and anti-inflammatory bioactives in Qingyan Dropping Pills via integrated in silico screening and bioactivity validation” (Frontiers in Medicine, 2025)
Like-named read-outs stand apart in the source and are kept apart here.

Columns and labels:
SARS-CoV-2 = system: SARS-CoV-2; parameters: method as in PMID 37245876; conditions: Vero E6 monolayers, noncytotoxic concentrations; cited from earlier work
TNF-α = TNF-α level (ELISA) in LPS-induced RAW 264.7 cells; type: cell-based; conditions: RAW 264.7, LPS 1 μg/mL, 24 h, vs model group
Description: (§1) NO is an essential pro-inflammatory factor, which can be not only highly expressed in cells but also promoted the expression of other inflammatory cytokines. TNF-α, IL-6, and IL-1β were considered as the main inflammatory cytokines, which were screened as the key targets in network pharmacology. So, the cytokines, including NO, TNF-α, IL-6, and IL-1β, were selected as indicators to evaluate the anti-inflammatory effects. After cultured in a 96-well plate overnight for 1 × 10^5 cells/well, RAW 264.7 cells were simultaneously treated with the tested compounds (concentration from 5 μM to 100 μM) and lipopolysaccharide (LPS) (concentration with 1 μg/mL) for 24 h. Then, the supernatant was collected to measure the cytokines levels with the corresponding assay kits, respectively.

IL-1β = IL-1β level (ELISA) in LPS-induced RAW 264.7 cells; type: cell-based; conditions: RAW 264.7, LPS 1 μg/mL, 24 h, vs model group
Description: as §1

RdRp = system: RdRp; parameters: method as in PMID 33614402; conditions: cell-free and cell-based assays; cited from earlier work
NO = NO level in LPS-induced RAW 264.7 cells; type: cell-based; conditions: RAW 264.7, LPS 1 μg/mL, 24 h, vs model group, dose-dependent
Description: as §1

SARS-CoV-2 PL^pro = SARS-CoV-2 PL^pro (Severe acute respiratory syndrome coronavirus 2, UniProt P0DTD1); assay: FRET enzymatic inhibition assay on PL^pro; type: biochemical; conditions: for inhibition on PL^pro at 40 μM: 40 μM compound
[1] = MTT cell viability assay in RAW 264.7 cells; type: cell-based; conditions: mouse
Procedure: (§2) RAW 264.7 cells were cultured in DMEM with 10% fetal bovine serum, 100 μg/mL streptomycin, and 100 U/mL penicillin at 37 °C and supplemented with 5% CO2 and 95% air. After seeded and cultured in a 96-well plate (2 × 10^5 cells/well, 100 μL medium/well) for overnight, RAW 264.7 were treated with the tested compounds for 24 h, respectively. Then, 50 μL MTT (2.5 mg/mL) was added into each well and incubated at 37 °C for 4 h. Finally, the absorbance was recorded at 490 nm by a microplate reader to assess the cell viability.

SARS-CoV-2 Omicron BA.5 = assay: cytopathic effects (CPE) inhibition assay in Vero E6 cells; type: cell-based
SARS-CoV-2 M^pro = SARS-CoV-2 M^pro (Severe acute respiratory syndrome coronavirus 2, UniProt P0DTD1); assay: FRET enzymatic inhibition assay on M^pro; type: biochemical
in vitro = conditions: African green monkey
IL-6 = IL-6 level (ELISA) in LPS-induced RAW 264.7 cells; type: cell-based; conditions: RAW 264.7, LPS 1 μg/mL, 24 h, vs model group
Description: as §1

[2] = biological target: SARS-CoV-2 papain-like protease (PL^pro) (Severe acute respiratory syndrome coronavirus 2, UniProt P0DTD1); assay: SPR assay (Biacore T200), immobilized PL^pro; type: binding
[3] = biological target: T1, SARS-CoV-2 spike protein (S^pro) (Severe acute respiratory syndrome coronavirus 2, UniProt P0DTC2); assay: SPR assay (Biacore T200), immobilized S^pro; type: binding; conditions: CM5 chip, 25 °C, pH 7.4, 5% DMSO, read-out: equilibrium dissociation constant (KD), S^pro
T1 construct: purchased Sino Biological Inc. (Beijing, China)

RAW 264.7 cells = assay: MTT cell viability assay in RAW 264.7 cells; type: cell-based
Procedure: as §2

[4] = biological target: SARS-CoV-2 main protease (M^pro) (Severe acute respiratory syndrome coronavirus 2, UniProt P0DTD1); assay: SPR assay (Biacore T200), immobilized M^pro; type: binding; conditions: CM5 chip, 25 °C, pH 7.4, 5% DMSO
[5] = rat, in vivo, po; cited from earlier work
S^pro RBD = biological target: S^pro RBD; parameters: method as in PMID 34403732; conditions: cited from earlier work
[6] = MTT, 24 h, tested up to 100 μΜ, read-out: CC50 in RAW264.7 cells

## O=C1O[C@H]2[C@@H]3OC(=O)c4cc(O)c(O)c(O)c4-c4c(O)c(O)c5oc(=O)c6c(c(O)c(O)c7oc(=O)c4c5c76)-c4c(cc(O)c(O)c4O)C(=O)OC[C@H]3OC(O)[C@@H]2OC(=O)c2cc(O)c(O)c(O)c2-c2c1cc(O)c(O)c2O (mixture of isomers) [punicalagin]
SARS-CoV-2
  virus-induced plaque formation: reduce

## O=C(O[C@@H]1O[C@@H]2COC(=O)c3cc(O)c(O)c(O)c3-c3c(cc(O)c(O)c3O)C(=O)O[C@H]([C@H]1O)[C@@H]2O)c1cc(O)c(O)c(O)c1 [COR, corilagin]
TNF-α
  level of TNF-α: decrease
IL-1β
  level of IL-1β: significantly reduce
RdRp
  RdRp polymerase activity: robustly inhibiting
NO
  production of NO: inhibited
SARS-CoV-2 PL^pro
  IC50: > 100 µM
SARS-CoV-2 PL^pro; FRET
  inhibition on PL^pro at 40 μM: poor inhibition
[1]
  CC50 at 24 h: > 100 µM
SARS-CoV-2 Omicron BA.5; Severe acute respiratory syndrome coronavirus 2, Vero C1008, 48 h
  EC50: 12.8 µM
SARS-CoV-2 M^pro
  IC50: 0.73 ± 0.05 µM
In vitro
  CC50 at 48 h: > 100 µM
IL-6
  level of IL-6: significantly reduce
[2]
  Kd: 6.24 µM
[3]
  Kd: 0.192 µM

## O=C(O)c1cc(O)c(O)c(O)c1 [GAL, gallic acid]
TNF-α
  level of TNF-α: decrease
IL-1β
  level of IL-1β: significantly reduce
NO
  production of NO: inhibited
[1]; [6]
  CC50 at 24 h: > 100 µM
IL-6
  level of IL-6: significantly reduce

## C[C@H](CCC(=O)NCC(=O)O)[C@H]1CC[C@H]2[C@@H]3[C@H](O)C[C@@H]4C[C@H](O)CC[C@]4(C)[C@H]3C[C@H](O)[C@]12C [GLYCH, glycocholic acid]
TNF-α
  level of TNF-α: decrease
IL-1β
  level of IL-1β: significantly reduce
NO
  production of NO: inhibited
RAW 264.7 cells; MTT, above 40 μΜ, p < 0.05
  cell viability of RAW264.7 cells: significantly decreased
IL-6
  level of IL-6: significantly reduce

## O=C(OC[C@H]1OC(O)[C@@](O)(COC(=O)c2cc(O)c(O)c(O)c2)[C@@H]1O)c1cc(O)c(O)c(O)c1 (stereo partly shown) [HAM, hamamelitannin]
IL-1β
  level of IL-1β: significantly reduce
NO
  production of NO: inhibited
[4]
  equilibrium dissociation constant (KD), M^pro: negligible affinity
RAW 264.7 cells
  cell viability of RAW264.7 cells: significantly decreased
IL-6
  level of IL-6: significantly reduce
[2]; SPR, CM5 chip, 25 °C, pH 7.4, 5% DMSO
  equilibrium dissociation constant (KD), PL^pro: negligible affinity
[3]
  Kd: 0.0933 µM

## O=C(/C=C/c1ccc(O[C@@H]2O[C@H](CO)[C@@H](O)[C@H](O)[C@H]2O)cc1)c1ccc(O)cc1O [ISO, isoliquiritin]
TNF-α
  level of TNF-α: decrease
IL-1β
  level of IL-1β: significantly reduce
NO
  production of NO: inhibited
[1]; [6]
  CC50 at 24 h: > 100 µM
IL-6
  level of IL-6: significantly reduce

## C[C@@H]1O[C@@H](O[C@H]2[C@H](Oc3cc(O)c4c(=O)cc(-c5ccc(O)cc5)oc4c3)O[C@H](CO)[C@@H](O)[C@@H]2O)[C@H](O)[C@H](O)[C@H]1O [RHO, rhoifolin]
TNF-α
  level of TNF-α: decrease
IL-1β
  level of IL-1β: significantly reduce
NO
  production of NO: inhibited
SARS-CoV-2 PL^pro; FRET, 1 μM protein, 10 μM substrate, read-out: IC50 on PL^pro
  IC50: > 100 µM
SARS-CoV-2 PL^pro; FRET
  inhibition on PL^pro at 40 μM: poor inhibition
[1]
  CC50 at 24 h: > 100 µM
SARS-CoV-2 M^pro; FRET, 0.2 μM protein, 20 μM substrate, read-out: IC50 on M^pro
  IC50: 21.6 ± 8.78 µM
IL-6
  level of IL-6: significantly reduce
[2]; SPR, CM5 chip, 25 °C, pH 7.4, 5% DMSO, read-out: equilibrium dissociation constant (KD), PL^pro
  Kd: 7.72 µM
[3]
  Kd: 7.07 µM

## Cn1cnc(Cn2c(=O)[nH]/c(=N\c3cc4cn(C)nc4cc3Cl)n(Cc3cc(F)c(F)cc3F)c2=O)n1 [S-217622, reference compound]
SARS-CoV-2 Omicron BA.5
  EC50: 0.088 µM

## CC1(C)C2CCC1(C)C(O)C2 (stereo not shown) [borneol]
[5]
  Tmax: 20 to 25 min

## O=C(O)C[C@@H]1C(=O)O[C@H]2[C@@H]3OC(=O)c4cc(O)c(O)c(O)c4-c4c(cc(O)c(O)c4O)C(=O)OC[C@H]2O[C@@H](OC(=O)c2cc(O)c(O)c(O)c2)[C@@H]3OC(=O)c2cc(O)c(O)c3c2[C@H]1[C@H](O)C(=O)O3 [chebulagic acid]
SARS-CoV-2
  virus-induced plaque formation: reduce

## O=C(O[C@@H]1Cc2c(O)cc(O)cc2O[C@@H]1c1cc(O)c(O)c(O)c1)c1cc(O)c(O)c(O)c1 [epigallocatechin gallate]
S^pro RBD
  Kd: 11.5 µM

## CC(C)=CCc1c(O)ccc(C(=O)/C=C/c2ccc(O)cc2)c1O [isobavachalcone]
S^pro RBD
  Kd: 5.7 µM

## O=C(/C=C/c1ccc(O)c(O)c1)O[C@@H]1C[C@](O)(C(=O)O)C[C@@H](OC(=O)/C=C/c2ccc(O)c(O)c2)[C@H]1O [isochlorogenic acid A]
S^pro RBD
  Kd: 18.3 µM
